In ChEMBL document CHEMBL1909046, “DrugMatrix in vitro pharmacology data”:

What was measured:
[1] = target: T1, Alpha-1D adrenergic receptor (Homo sapiens, UniProt P25100); format: cell membranes, HEK293, Membrane; note: in other assays of this panel Not Active means under 50% inhibition at 10 µM
T1 sequence (P25100 whole entry): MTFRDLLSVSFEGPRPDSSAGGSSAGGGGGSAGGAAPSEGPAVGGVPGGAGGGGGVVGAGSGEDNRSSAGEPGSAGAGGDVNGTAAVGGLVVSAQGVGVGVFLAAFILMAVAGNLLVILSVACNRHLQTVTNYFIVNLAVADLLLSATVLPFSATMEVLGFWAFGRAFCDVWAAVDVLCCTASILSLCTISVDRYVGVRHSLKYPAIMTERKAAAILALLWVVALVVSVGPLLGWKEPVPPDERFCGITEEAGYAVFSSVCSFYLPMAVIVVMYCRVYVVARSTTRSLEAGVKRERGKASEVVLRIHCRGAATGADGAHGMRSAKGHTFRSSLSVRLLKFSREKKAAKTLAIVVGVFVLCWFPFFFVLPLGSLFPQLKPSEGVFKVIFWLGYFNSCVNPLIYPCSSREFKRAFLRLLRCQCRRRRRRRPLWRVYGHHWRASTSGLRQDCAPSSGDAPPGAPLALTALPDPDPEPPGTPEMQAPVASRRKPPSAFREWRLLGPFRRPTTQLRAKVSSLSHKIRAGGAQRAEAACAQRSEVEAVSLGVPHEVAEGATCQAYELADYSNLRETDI

[2] = target: Sodium-dependent dopamine transporter (Homo sapiens, UniProt Q01959); assay: DRUGMATRIX: Dopamine Transporter radioligand binding (ligand: [125I] RTI-55); format: cell membranes, CHO-K1, Membrane; conditions: Not Active = under 50% inhibition at 10 µM
Chain of Sodium-dependent dopamine transporter (Q01959 whole entry): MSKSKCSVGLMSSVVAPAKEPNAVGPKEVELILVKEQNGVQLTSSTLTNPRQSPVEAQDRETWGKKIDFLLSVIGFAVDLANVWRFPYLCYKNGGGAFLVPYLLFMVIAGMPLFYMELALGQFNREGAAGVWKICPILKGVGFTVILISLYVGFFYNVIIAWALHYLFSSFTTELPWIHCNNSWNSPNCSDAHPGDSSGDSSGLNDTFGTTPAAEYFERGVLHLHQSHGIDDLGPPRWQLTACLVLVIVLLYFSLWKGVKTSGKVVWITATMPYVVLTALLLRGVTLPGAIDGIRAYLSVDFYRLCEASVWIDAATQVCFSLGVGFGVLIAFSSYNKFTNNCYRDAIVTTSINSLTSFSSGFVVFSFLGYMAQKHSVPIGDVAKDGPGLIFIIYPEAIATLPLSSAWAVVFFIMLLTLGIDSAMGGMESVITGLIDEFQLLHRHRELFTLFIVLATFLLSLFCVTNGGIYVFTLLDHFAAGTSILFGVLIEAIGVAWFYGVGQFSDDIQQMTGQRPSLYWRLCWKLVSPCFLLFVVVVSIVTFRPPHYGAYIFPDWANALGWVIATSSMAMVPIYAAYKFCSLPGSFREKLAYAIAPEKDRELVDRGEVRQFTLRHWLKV

[3] = target: T2, 3-hydroxy-3-methylglutaryl-coenzyme A reductase (Homo sapiens, UniProt P04035); parameters: species or system Escherichia coli;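 note: enzyme inhibition assay of HMG-CoA reductase using radiolabeled [14C]HMG-CoA as substrate; in other assays of this panel Not Active means under 50% inhibition at 10 µM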
T2 sequence (P04035 whole entry): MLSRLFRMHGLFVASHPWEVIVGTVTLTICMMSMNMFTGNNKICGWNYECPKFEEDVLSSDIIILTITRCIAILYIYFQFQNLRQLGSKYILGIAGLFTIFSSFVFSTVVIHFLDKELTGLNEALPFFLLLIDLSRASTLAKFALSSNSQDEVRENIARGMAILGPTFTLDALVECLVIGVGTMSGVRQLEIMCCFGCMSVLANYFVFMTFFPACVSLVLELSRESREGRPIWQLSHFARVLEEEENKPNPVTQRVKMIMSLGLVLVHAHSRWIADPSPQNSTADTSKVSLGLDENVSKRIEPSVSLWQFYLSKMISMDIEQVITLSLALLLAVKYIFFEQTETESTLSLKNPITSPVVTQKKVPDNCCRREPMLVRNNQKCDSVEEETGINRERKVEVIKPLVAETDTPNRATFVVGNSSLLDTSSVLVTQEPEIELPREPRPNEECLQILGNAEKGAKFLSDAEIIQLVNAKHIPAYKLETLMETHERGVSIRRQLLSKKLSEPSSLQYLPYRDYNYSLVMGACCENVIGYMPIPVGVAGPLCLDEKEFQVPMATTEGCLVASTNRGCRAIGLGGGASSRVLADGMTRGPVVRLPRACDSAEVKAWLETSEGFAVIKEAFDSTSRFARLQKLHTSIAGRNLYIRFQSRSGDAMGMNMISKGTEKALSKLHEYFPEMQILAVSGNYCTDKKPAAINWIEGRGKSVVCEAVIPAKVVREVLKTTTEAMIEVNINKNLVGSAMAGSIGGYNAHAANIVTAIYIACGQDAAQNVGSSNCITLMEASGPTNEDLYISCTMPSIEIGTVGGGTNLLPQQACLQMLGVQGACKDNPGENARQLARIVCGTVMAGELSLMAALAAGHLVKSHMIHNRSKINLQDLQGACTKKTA

[4] = target: Receptor tyrosine-protein kinase erbB-2 (Homo sapiens, UniProt P04626); assay: biochemical; format: cell-based, Insect cells; conditions: insect cells;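 note: inhibition of HER2 kinase enzyme activity, measured with Poly(Glu:Tyr) as the phosphorylation substrate; in other assays of this panel Not Active means under 50% inhibition at 10 µM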
[5] = target: Tyrosine-protein kinase Lck (Homo sapiens, UniProt P06239); assay: DRUGMATRIX: Protein Tyrosine Kinase, LCK enzyme inhibition (substrate: Poly(Glu:Tyr)); format: cell-based, Insect cells; conditions: insect cells, Not Active = under 50% inhibition at 10 µM
Chain of Tyrosine-protein kinase Lck (P06239 whole entry): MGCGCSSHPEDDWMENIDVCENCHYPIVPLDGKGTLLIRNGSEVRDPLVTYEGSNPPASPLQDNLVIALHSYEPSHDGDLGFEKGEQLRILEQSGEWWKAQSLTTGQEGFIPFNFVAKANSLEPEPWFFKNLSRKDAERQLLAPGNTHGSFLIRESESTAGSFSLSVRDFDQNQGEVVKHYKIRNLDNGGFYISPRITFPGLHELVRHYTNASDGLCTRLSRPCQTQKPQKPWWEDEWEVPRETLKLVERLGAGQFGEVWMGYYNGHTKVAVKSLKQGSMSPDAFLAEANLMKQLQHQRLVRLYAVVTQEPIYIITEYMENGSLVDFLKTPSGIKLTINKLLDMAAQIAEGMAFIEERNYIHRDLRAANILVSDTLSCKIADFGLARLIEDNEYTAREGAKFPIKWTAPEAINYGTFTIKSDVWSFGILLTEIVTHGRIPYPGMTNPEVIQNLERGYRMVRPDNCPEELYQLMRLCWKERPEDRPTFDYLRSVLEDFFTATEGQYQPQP

| Molecule | IC50 ([1]; hek293) | IC50 ([2]; cho-k1) | IC50 [3] | IC50 [4] | IC50 [5] | IC50 ([2]; read-out: IC50) | Ki ([2]; read-out: Ki) | IC50 ([1]; read-out: IC50) | Ki ([1]; read-out: Ki) | Ki ([1]; hek293) | Ki ([2]; cho-k1) | Ki [3] | Ki [4] | Ki [5] | IC50 ([4]; read-out: IC50) | IC50 ([5]; read-out: IC50) |
| --- | --- | --- | --- | --- | --- | --- | --- | --- | --- | --- | --- | --- | --- | --- | --- | --- |
| C[C@](N)(Cc1ccc(O)c(O)c1)C(=O)O [METHYLDOPA] | Not Active | Not Active | Not Active | Not Active | Not Active |  |  |  |  |  |  |  |  |  |  |  |
| C[C@]12CCC(=O)C=C1CC[C@@H]1[C@@H]2CC[C@@]2(C)[C@H]1CC[C@]2(C)O [METHYLTESTOSTERONE] | Not Active | Not Active | Not Active | Not Active | Not Active |  |  |  |  |  |  |  |  |  |  |  |
| Cc1ccccc1N1C(=O)c2cc(S(N)(=O)=O)c(Cl)cc2NC1C (stereo not given) [METOLAZONE] | Not Active | Not Active | Not Active | Not Active | Not Active |  |  |  |  |  |  |  |  |  |  |  |
| COCCc1ccc(OCC(O)CNC(C)C)cc1 (stereo not given) [METOPROLOL] | Not Active | Not Active | Not Active | Not Active | Not Active |  |  |  |  |  |  |  |  |  |  |  |
| CCn1cc(C(=O)O)c(=O)c2cc(F)c(N3CCNCC3)cc21 [NORFLOXACIN] | Not Active | Not Active | Not Active | Not Active | Not Active |  |  |  |  |  |  |  |  |  |  |  |
| NC1=NC(=O)C(c2ccccc2)O1 (stereo not given) [PEMOLINE] | Not Active |  | Not Active | Not Active | Not Active | 521 nM | 414 nM |  |  |  |  |  |  |  |  |  |
| Nc1nc2c(ncn2CCC(CO)CO)c(=O)[nH]1 [PENCICLOVIR] | Not Active | Not Active | Not Active | Not Active | Not Active |  |  |  |  |  |  |  |  |  |  |  |
| C=C(C)C1(O)OC(=O)C=C1OC (stereo not given) [PENICILLIC ACID] | Not Active | Not Active | Not Active | Not Active | Not Active |  |  |  |  |  |  |  |  |  |  |  |
| CC1(C)S[C@@H]2[C@H](NC(=O)Cc3ccccc3)C(=O)N2[C@H]1C(=O)O [PENICILLIN G] | Not Active | Not Active | Not Active | Not Active | Not Active |  |  |  |  |  |  |  |  |  |  |  |
| C1CCC(C(CC2CCCCN2)C2CCCCC2)CC1 (stereo not given) [PERHEXILINE] | Not Active | Not Active | Not Active | Not Active | Not Active |  |  |  |  |  |  |  |  |  |  |  |
| CCOc1ccc(NC(C)=O)cc1 [PHENACETIN] | Not Active | Not Active | Not Active | Not Active | Not Active |  |  |  |  |  |  |  |  |  |  |  |
| CNNCc1ccc(C(=O)NC(C)C)cc1 [PROCARBAZINE] | Not Active | Not Active | Not Active | Not Active | Not Active |  |  |  |  |  |  |  |  |  |  |  |
| CN(C)CCCN1c2ccccc2Sc2ccccc21 [PROMAZINE] |  | Not Active | Not Active | Not Active | Not Active |  |  | 13 nM | 6.18 nM |  |  |  |  |  |  |  |
| CC(O)CO (stereo not given) [PROPYLENE GLYCOL] | Not Active | Not Active | Not Active | Not Active | Not Active |  |  |  |  |  |  |  |  |  |  |  |
| LEAD (II) ACETATE | Not Active | Not Active | Not Active | Not Active | Not Active |  |  |  |  | Not Active | Not Active | Not Active | Not Active | Not Active |  |  |
| LIPOPOLYSACCHARIDE E. COLI O55:B5 | Not Active | Not Active | Not Active |  |  |  |  |  |  | Not Active | Not Active | Not Active |  |  | 449 nM | 294 nM |
